IC50 data for 30 compounds are collected here from patent US20110053923A1, “CHEMICAL COMPOUNDS 610” (AstraZeneca, priority 2008, published 2011).

Like-named read-outs stand apart in the source and are kept apart here.

What is called IC50 is the point on the concentration scale where inhibition reaches its midpoint.

Assay [1] deals with mTOR (Homo sapiens, UniProt P42345). The experiment in a line: Enzyme - mTOR Kinase Assay (Echo).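 Further: enzyme expressed in HEK293 cells, 2 h incubation at room temperature, read-out is phosphorylation of a biotinylated peptide substrate detected with an anti-phospho p70 S6 Kinase (T389) antibody, inhibition lowers signal.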 It counts as biochemical. To be noted: recombinant FLAG-tagged mTOR (1362-2549); AlphaScreen; ATP 20 μM.
mTOR, sequence (P42345 1362-2549): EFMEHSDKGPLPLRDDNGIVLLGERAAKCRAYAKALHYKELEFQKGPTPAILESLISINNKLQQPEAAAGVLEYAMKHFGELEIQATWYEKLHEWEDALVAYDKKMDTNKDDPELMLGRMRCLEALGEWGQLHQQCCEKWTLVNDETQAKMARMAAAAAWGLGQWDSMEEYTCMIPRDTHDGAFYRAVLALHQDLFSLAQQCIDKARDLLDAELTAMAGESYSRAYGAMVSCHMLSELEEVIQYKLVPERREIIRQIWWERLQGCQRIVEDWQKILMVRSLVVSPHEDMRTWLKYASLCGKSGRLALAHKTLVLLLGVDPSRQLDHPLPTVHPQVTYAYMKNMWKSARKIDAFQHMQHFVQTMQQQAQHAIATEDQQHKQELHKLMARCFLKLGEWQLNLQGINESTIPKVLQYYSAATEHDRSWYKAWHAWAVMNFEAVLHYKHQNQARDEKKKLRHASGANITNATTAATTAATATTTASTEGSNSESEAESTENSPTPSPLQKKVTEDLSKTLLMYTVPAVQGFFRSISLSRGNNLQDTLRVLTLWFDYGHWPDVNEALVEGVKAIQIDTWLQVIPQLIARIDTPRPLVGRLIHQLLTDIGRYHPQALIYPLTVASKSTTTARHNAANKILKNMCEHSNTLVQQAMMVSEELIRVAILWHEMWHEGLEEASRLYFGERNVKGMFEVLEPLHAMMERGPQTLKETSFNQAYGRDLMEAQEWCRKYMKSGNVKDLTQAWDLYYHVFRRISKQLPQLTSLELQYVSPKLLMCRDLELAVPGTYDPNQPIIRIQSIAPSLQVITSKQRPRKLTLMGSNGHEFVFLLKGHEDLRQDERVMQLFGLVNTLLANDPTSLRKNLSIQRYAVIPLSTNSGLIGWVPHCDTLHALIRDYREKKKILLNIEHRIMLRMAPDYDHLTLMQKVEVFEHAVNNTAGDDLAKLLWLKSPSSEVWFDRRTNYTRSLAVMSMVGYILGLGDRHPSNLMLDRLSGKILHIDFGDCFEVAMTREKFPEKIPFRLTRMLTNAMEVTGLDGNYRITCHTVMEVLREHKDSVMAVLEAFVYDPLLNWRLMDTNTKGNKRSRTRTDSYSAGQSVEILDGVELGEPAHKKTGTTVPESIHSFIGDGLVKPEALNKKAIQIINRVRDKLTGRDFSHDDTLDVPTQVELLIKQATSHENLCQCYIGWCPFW
For assay [2], the target named is T1, ATR (Homo sapiens, UniProt Q13535).
T1 construct: obtained from HeLa nuclear extract (CIL Biotech, Mons, Belgium) by immunoprecipitation with rabbit polyclonal antiserum raised to amino acids 400-480 of ATR; host or cells: HeLa nuclear extract
T1 sequence (Q13535 whole entry, the tested form may be a part): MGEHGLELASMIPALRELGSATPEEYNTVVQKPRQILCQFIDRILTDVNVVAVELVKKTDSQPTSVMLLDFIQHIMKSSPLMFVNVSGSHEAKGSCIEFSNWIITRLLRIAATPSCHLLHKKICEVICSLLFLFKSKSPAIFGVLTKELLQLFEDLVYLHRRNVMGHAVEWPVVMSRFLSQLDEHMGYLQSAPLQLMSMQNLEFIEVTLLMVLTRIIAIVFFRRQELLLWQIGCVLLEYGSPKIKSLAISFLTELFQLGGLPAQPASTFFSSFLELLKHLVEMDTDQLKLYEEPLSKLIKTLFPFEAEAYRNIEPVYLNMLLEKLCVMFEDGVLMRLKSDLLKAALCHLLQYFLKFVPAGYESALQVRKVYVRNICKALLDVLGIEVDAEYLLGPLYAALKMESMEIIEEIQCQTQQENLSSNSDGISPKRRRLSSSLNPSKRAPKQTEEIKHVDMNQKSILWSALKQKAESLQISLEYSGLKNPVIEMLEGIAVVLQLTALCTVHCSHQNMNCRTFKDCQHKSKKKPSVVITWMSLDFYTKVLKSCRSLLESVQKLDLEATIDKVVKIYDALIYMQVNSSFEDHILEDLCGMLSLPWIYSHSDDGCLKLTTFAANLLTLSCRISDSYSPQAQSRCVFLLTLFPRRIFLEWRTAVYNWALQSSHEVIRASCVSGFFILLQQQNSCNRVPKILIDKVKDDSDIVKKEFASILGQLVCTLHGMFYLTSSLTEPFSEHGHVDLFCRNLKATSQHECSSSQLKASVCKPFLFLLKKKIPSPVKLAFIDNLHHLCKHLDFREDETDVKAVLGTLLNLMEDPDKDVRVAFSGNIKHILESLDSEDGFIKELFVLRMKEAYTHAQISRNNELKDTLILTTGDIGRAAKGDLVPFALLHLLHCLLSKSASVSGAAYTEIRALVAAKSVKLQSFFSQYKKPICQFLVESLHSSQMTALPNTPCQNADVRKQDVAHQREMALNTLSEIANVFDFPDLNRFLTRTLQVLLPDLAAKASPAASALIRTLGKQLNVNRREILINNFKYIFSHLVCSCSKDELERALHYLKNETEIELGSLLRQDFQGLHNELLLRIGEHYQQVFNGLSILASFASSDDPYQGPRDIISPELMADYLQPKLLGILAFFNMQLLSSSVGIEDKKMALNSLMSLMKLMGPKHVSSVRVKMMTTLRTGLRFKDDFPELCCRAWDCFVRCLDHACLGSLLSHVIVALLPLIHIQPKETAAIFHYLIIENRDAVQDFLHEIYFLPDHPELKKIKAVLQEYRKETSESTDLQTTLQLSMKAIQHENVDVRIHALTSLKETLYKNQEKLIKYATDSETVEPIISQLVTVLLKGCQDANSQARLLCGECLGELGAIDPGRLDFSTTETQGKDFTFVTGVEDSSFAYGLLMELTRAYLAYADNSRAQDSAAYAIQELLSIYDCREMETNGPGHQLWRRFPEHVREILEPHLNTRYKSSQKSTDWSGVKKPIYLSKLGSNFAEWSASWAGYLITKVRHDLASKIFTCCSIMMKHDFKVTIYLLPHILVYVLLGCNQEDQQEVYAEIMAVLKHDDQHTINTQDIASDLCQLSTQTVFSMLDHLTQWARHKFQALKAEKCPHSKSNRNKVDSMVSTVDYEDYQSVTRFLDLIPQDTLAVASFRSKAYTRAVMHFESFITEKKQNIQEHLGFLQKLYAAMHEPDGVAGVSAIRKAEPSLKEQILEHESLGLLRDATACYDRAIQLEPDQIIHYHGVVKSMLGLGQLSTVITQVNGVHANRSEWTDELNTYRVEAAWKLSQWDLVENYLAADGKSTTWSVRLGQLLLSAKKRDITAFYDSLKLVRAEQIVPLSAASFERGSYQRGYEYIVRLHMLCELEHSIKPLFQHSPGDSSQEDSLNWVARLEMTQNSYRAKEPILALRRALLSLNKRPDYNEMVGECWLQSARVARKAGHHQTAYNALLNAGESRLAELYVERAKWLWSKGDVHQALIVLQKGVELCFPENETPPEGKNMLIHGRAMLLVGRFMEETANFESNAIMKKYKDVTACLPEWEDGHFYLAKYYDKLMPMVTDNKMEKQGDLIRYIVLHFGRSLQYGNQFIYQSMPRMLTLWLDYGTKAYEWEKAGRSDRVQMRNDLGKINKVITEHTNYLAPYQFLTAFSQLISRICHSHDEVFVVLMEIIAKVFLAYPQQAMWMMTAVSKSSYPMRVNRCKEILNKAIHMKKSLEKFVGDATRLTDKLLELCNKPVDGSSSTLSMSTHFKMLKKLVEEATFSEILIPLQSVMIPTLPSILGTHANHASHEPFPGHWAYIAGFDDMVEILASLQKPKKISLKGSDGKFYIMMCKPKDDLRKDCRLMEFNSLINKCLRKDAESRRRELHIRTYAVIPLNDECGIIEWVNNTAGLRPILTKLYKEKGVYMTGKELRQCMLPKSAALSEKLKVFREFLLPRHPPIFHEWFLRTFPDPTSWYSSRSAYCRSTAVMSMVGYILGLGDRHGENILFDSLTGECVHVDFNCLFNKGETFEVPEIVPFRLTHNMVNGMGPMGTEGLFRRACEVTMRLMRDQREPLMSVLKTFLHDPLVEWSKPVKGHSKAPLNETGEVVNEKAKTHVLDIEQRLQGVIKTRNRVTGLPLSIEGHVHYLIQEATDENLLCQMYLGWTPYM
T1 sequence (Q8WXE1 whole entry partner, the tested form may be a part): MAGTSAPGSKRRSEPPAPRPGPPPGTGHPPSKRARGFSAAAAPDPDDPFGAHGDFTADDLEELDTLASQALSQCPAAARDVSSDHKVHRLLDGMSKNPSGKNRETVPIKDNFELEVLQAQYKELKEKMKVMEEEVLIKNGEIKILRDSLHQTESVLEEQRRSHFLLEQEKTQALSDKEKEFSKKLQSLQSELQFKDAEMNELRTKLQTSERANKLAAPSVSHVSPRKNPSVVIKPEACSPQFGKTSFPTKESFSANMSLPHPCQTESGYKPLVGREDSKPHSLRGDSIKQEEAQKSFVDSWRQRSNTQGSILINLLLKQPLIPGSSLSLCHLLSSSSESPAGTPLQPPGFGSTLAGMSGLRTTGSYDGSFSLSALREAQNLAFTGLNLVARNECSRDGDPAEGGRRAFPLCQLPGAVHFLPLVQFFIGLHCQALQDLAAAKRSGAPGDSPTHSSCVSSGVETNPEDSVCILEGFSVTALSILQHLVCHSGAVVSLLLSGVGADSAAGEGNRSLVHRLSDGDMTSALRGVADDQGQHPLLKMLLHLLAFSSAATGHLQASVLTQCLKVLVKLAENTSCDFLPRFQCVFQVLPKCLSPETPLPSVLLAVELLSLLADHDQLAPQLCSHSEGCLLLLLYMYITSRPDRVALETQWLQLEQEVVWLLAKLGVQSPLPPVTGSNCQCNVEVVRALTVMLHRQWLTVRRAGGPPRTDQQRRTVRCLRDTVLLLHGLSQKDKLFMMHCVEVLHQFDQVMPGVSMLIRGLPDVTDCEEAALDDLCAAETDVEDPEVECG
Put plainly: Enzyme Assay - ATR (Test (a)).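 Further: kinase activity of bead-bound ATR toward a GST-p53 N-terminal fragment substrate, 1 h at 37 °C, read by chemiluminescence, with inhibitor-free wells as control.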 It counts as biochemical.

Where [3] appears, read: ATR immunoprecipitated from HeLa nuclear extract, 3 μM ATP, average of individual tests, read-out: ATR average IC50.

On to `CS(=O)(=O)C1(c2cc(N3CCOCC3)nc(-c3cccc4[nH]ccc34)n2)CC1` [Example 1.01, 4-{4-[1-(Methylsulfonyl)cyclopropyl]-6-morpholin-4-ylpyrimidin-2-yl}-1H-indole], for which the IC50 in assay [1] was 179 nM.

With `Cc1cc(-c2nc(N3CCOCC3)cc(C3(S(C)(=O)=O)CC3)n2)c2cc[nH]c2c1` [Example 1.02, 6-Methyl-4-{4-[1-(methylsulfonyl)cyclopropyl]-6-morpholin-4-ylpyrimidin-2-yl}-1H-indole], the IC50 in assay [2] (setting [3]) was 7.67 nM; in assay [1], 110 nM.

`Cc1cc2c(-c3nc(N4CCOCC4)cc(C4(S(C)(=O)=O)CC4)n3)cccc2[nH]1` [Example 1.03, 2-Methyl-4-{4-[1-(methylsulfonyl)cyclopropyl]-6-morpholin-4-ylpyrimidin-2-yl}-1H-indole]: the figures for the IC50 in assay [2] and in assay [1] were 27.5 nM and 166 nM, respectively.

Consider `CS(=O)(=O)C1(c2cc(N3CCOCC3)nc(-c3cc(C#N)cc4[nH]ccc34)n2)CC1` [Example 1.05, 4-{4-[1-(methylsulfonyl)cyclopropyl]-6-morpholin-4-ylpyrimidin-2-yl}-1H-indole-6-carbonitrile], for which the results for the IC50 in assay [2] (setting [3]) and in assay [1] were 65.9 nM and 326 nM, respectively.

As for `CS(=O)(=O)C1(c2cc(N3CCOCC3)nc(-c3cc(Cl)cc4[nH]ccc34)n2)CC1` [Example 1.06, 6-chloro-4-{4-[1-(methylsulfonyl)cyclopropyl]-6-morpholin-4-ylpyrimidin-2-yl}-1H-indole], the results for the IC50 in assay [2] (setting [3]) and in assay [1] were 15.8 nM and 71.2 nM, respectively.

With `CS(=O)(=O)C1(c2cc(N3CCOCC3)nc(-c3cccc4[nH]ccc34)n2)CCNCC1` [Example 1.08, 4-{4-[4-(Methylsulfonyl)piperidin-4-yl]-6-morpholin-4-ylpyrimidin-2-yl}-1H-indole], the values for the IC50 in assay [2] (setting [3]) and in assay [1] were 9.44 nM and 231 nM, respectively.

In the case of `CS(=O)(=O)C1(c2cc(N3CCOCC3)nc(-c3cccc4[nH]ccc34)n2)CCOCC1` [Example 1.09, 4-{4-[4-(Methylsulfonyl)tetrahydro-2H-pyran-4-yl]-6-morpholin-4-ylpyrimidin-2-yl}-1H-indole], the IC50 in assay [2] (setting [3]) came to 3.74 nM.

Turning to `CCS(=O)(=O)C1(c2cc(N3CCOCC3)nc(-c3cccc4[nH]ccc34)n2)CC1` [Example 1.10, 4-{4-[1-(ethylsulfonyl)cyclopropyl]-6-morpholin-4-ylpyrimidin-2-yl}-1H-indole], the IC50 in assay [2] (setting [3]) came out at 15 nM; in assay [1] it was 95.8 nM.

As to `CC(C)S(=O)(=O)C1(c2cc(N3CCOCC3)nc(-c3cccc4[nH]ccc34)n2)CC1` [Example 1.11, 4-(4-{1-[(1-methylethyl)sulfonyl]cyclopropyl}-6-morpholin-4-ylpyrimidin-2-yl)-1H-indole], the IC50 in assay [2] (setting [3]) is 13.2 nM; in assay [1], 122 nM.

Turning to `O=S(=O)(C1CC1)C1(c2cc(N3CCOCC3)nc(-c3cccc4[nH]ccc34)n2)CC1` [Example 1.12, 4-{4-[1-(cyclopropylsulfonyl)cyclopropyl]-6-morpholin-4-ylpyrimidin-2-yl}-1H-indole], the IC50 is 32.1 nM in assay [2] (setting [3]) and over 90000 nM in assay [1].

As to `O=S(=O)(C1CC1)C1(c2cc(N3CCOCC3)nc(-c3cccc4[nH]ccc34)n2)CCOCC1` [Example 1.13, 4-{4-[4-(cyclopropylsulfonyl)tetrahydro-2H-pyran-4-yl]-6-morpholin-4-ylpyrimidin-2-yl}-1H-indole], the IC50 in assay [2] (setting [3]) stood at 58.3 nM; in assay [1], 1240 nM.

As for `O=S(=O)(C1CC1)C1(c2cc(N3CCOCC3)nc(-c3cccc4[nH]ccc34)n2)CCNCC1` [Example 1.14, 4-{4-[4-(cyclopropylsulfonyl)piperidin-4-yl]-6-morpholin-4-ylpyrimidin-2-yl}-1H-indole], the figures for the IC50 in assay [2] (setting [3]) and in assay [1] were 22.4 nM and 1460 nM, respectively.

For `C[C@H]1COCCN1c1cc(C2(S(=O)(=O)C3CC3)CCNCC2)nc(-c2cccc3[nH]ccc23)n1` [Example 2.01, 4-{4-[4-(Cyclopropylsulfonyl)piperidin-4-yl]-6-[(3S)-3-methylmorpholin-4-yl]pyrimidin-2-yl}-1H-indole], the IC50 in assay [2] (setting [3]) was 26.8 nM; in assay [1], 497 nM.

Regarding `C[C@H]1COCCN1c1cc(C2(S(=O)(=O)C3CC3)CCOCC2)nc(-c2cccc3[nH]ccc23)n1` [Example 2.02, 4-{4-[4-(Cyclopropylsulfonyl)tetrahydro-2H-pyran-4-yl]-6-[(3S)-3-methylmorpholin-4-yl]pyrimidin-2-yl}-1H-indole], the IC50 in assay [2] (setting [3]) turned out to be 376 nM; in assay [1], 467 nM.

Regarding `C[C@H]1COCCN1c1cc(C2(S(C)(=O)=O)CCCC2)nc(-c2cccc3[nH]ccc23)n1` [Example 2.03, 4-{4-[(3S)-3-Methylmorpholin-4-yl]-6-[1-(methylsulfonyl)cyclopentyl]pyrimidin-2-yl}-1H-indole], the IC50 in assay [2] (setting [3]) amounted to 6.21 nM; in assay [1], 99 nM.

Take `C[C@H]1COCCN1c1cc(C2(S(C)(=O)=O)CCOCC2)nc(-c2cccc3[nH]ccc23)n1` [Example 2.04, 4-{4-[(3S)-3-Methylmorpholin-4-yl]-6-[4-(methylsulfonyl)tetrahydro-2H-pyran-4-yl]pyrimidin-2-yl}-1H-indole]: the IC50 in assay [2] (setting [3]) is 4.55 nM; in assay [1] it was 300 nM.

As to `Cc1cc(-c2nc(N3CCOC[C@H]3C)cc(C3(S(C)(=O)=O)CC3)n2)c2cc[nH]c2c1` [Example 3.02, 6-Methyl-4-{4-[(3R)-3-methylmorpholin-4-yl]-6-[1-(methylsulfonyl)cyclopropyl]pyrimidin-2-yl}-1H-indole], the half-maximal inhibitory concentration (IC50) amounted to 6.67 nM in assay [2] (setting [3]) and 97.1 nM in assay [1].

For the compound `Cc1cc2c(-c3nc(N4CCOC[C@H]4C)cc(C4(S(C)(=O)=O)CC4)n3)cccc2[nH]1` [Example 3.03, 2-Methyl-4-{4-[(3R)-3-methylmorpholin-4-yl]-6-[1-(methylsulfonyl)cyclopropyl]pyrimidin-2-yl}-1H-indole], the IC50 was determined as 5.46 nM in assay [2] (setting [3]) and 46.3 nM in assay [1].

As to `C[C@@H]1COCCN1c1cc(C2(S(C)(=O)=O)CC2)nc(-c2cc(C#N)cc3[nH]ccc23)n1` [Example 3.04, 4-{4-[(3R)-3-Methylmorpholin-4-yl]-6-[1-(methylsulfonyl)cyclopropyl]pyrimidin-2-yl}-1H-indole-6-carbonitrile], the IC50 amounted to 35.5 nM in assay [2] (setting [3]) and 207 nM in assay [1].

With `C[C@@H]1COCCN1c1cc(C2(S(C)(=O)=O)CC2)nc(-c2cc(Cl)cc3[nH]ccc23)n1` [Example 3.05, 6-chloro-4-{4-[(3R)-3-methylmorpholin-4-yl}-6-[1-(methylsulfonyl)cyclopropyl]pyrimidin-2-yl}-1H-indole], the results for the IC50 in assay [2] (setting [3]) and in assay [1] were 4.23 nM and 54.6 nM, respectively.

In the case of `C[C@@H]1COCCN1c1cc(C2(S(C)(=O)=O)CC2)nc(-c2cc(F)cc3[nH]ccc23)n1` [Example 3.06], the IC50 came out at 3.45 nM in assay [2] (setting [3]) and 38 nM in assay [1].

In the case of `COc1cc(-c2nc(N3CCOC[C@H]3C)cc(C3(S(C)(=O)=O)CC3)n2)c2cc[nH]c2c1` [Example 3.07, 6-methoxy-4-{4-[(3R)-3-methylmorphohn-4-yl]-6-[1-(methylsulfonyl)cyclopropyl]pyrimidin-2-yl}-1H-indole], the results for the IC50 in assay [2] (setting [3]) and in assay [1] were 12.4 nM and 24.1 nM, respectively.

Turning to `C[C@@H]1COCCN1c1cc(C2(S(C)(=O)=O)CCOCC2)nc(-c2cccc3[nH]ccc23)n1` [Example 3.08, 4-{4-[(3R)-3-Methylmorpholin-4-yl]-6-[4-(methylsulfonyl)tetrahydro-2H-pyran-4-yl]pyrimidin-2-yl}-1H-indole], the IC50 in assay [2] (setting [3]) is 2.32 nM; in assay [1] it was 225 nM.

Take `Cc1cc(-c2nc(N3CCOC[C@H]3C)cc(C3(S(C)(=O)=O)CCOCC3)n2)c2cc[nH]c2c1` [Example 3.09, 6-Methyl-4-{4-[(3R)-3-methylmorpholin-4-yl]-6-[4-(methylsulfonyl)tetrahydro-2H-pyran-4-yl]pyrimidin-2-yl}-1H-indole]: the IC50 was 1.58 nM in assay [2] (setting [3]) and 451 nM in assay [1].

Turning to `Cc1cc2c(-c3nc(N4CCOC[C@H]4C)cc(C4(S(C)(=O)=O)CCOCC4)n3)cccc2[nH]1` [Example 3.10, 2-Methyl-4-{4-[(3R)-3-methylmorpholin-4-yl]-6-[4-(methylsulfonyl)tetrahydro-2H-pyran-4-yl]pyrimidin-2-yl}-1H-indole], the IC50 came out at 3.58 nM in assay [2] (setting [3]) and 145 nM in assay [1].

As for `COc1cc(-c2nc(N3CCOC[C@H]3C)cc(C3(S(C)(=O)=O)CCOCC3)n2)c2cc[nH]c2c1` [Example 3.11, 6-Methoxy-4-{4-[(3R)-3-methylmorpholin-4-yl]-6-[4-(methylsulfonyl)tetrahydro-2H-pyran-4-yl]pyrimidin-2-yl}-1H-indole], the IC50 worked out at 1.58 nM in assay [2] (setting [3]) and 77.9 nM in assay [1].

Turning to `C[C@@H]1COCCN1c1cc(C2(S(C)(=O)=O)CCOCC2)nc(-c2cc(Cl)cc3[nH]ccc23)n1` [Example 3.12], the IC50 came out at 2.5 nM in assay [2] (setting [3]) and 420 nM in assay [1].

As to `C[C@@H]1COCCN1c1cc(C2(S(C)(=O)=O)CCOCC2)nc(-c2cc(F)cc3[nH]ccc23)n1` [Example 3.13, 6-fluoro-4-{4-[(3R)-3-methylmorpholin-4-yl]-6-[4-(methylsulfonyl)tetrahydro-2H-pyran-4-yl]pyrimidin-2-yl}-1H-indole], the IC50 in assay [2] (setting [3]) turned out to be 1.53 nM; in assay [1], 250 nM.

Consider `C[C@@H]1COC[C@H](C)N1c1cc(C2(S(C)(=O)=O)CC2)nc(-c2cccc3[nH]ccc23)n1` [Example 4.01, 4-{4-[(3S,5R)-3,5-Dimethylmorpholin-4-yl]-6-[1-(methylsulfonyl)cyclopropyl]pyrimidin-2-yl}-1H-indole], for which the IC50 in assay [2] (setting [3]) was 20.2 nM.

With `CS(=O)(=O)C1(c2cc(N3CC4CCC(C3)O4)nc(-c3cccc4[nH]ccc34)n2)CC1` [Example 5.01, 4-{4-[1-(Methylsulfonyl)cyclopropyl]-6-(8-oxa-3-azabicyclo[3.2.1]oct-3-yl)pyrimidin-2-yl}-1H-indole], the IC50 in assay [1] worked out at 21 nM.
